By IC50 is commonly meant the concentration that gives 50% inhibition.

The test system of test [1] is ERK-2. Kind of test: Tyrosine phosphorylation of ERK-2 in RAW 264.7 cells (antiphosphotyrosine immunoblot). The class given is cell-based, murine. The settings on record: 3h pretreatment, LPS 1 μg/ml 30 min; FIG. 5A. The method, then: (§1) Rat (Sprague-Dawley) alveolar macrophages were collected by broncho-alveolar lavage as described by Lee et al., J. Biol. Chem., vol. 267, pp. 25934-25938 (1992). The murine macrophage cell line RAW 264.7 (ATCC no. TIB-71) was cultured in Dubecco's modified Eagle's medium (DMEM) containing 10% heat-inactivated fetal bovine serum (FBS, Intergen). For the cyclooxygenase activity assay, cells were seeded in 24 well plates, and after near-confluency, cells were treated with aspirin (250 μM) for 2.5h to inactivate endogenous cyclooxygenase. […] COX activity was determined by measuring prostaglandin E2 concentrations in cells incubated with arachidonic acid (30 μM) for 10 minutes as described in Lee et al. (1992).
(§2) This detection technique was carried out essentially as described in Chanmugan et al. (1995) using 4G10 monoclonal antiphosphotyrosine antibody (UBI) and the ECL detection system (Amersham).
(§3) Parthenolide suppressed LPS-stimulated tyrosine phosphorylation of various proteins in RAW 264.7 cells as assessed by antiphosphotyrosine immunoblot, depicted in FIG. 5A. This inhibition was correlated with the suppressed expression of COX-2 and IL-1α. […] Therefore, the extent of tyrosine phosphorylation of JNK-1 was assessed by the electrophoretic mobility shift of phosphorylated JNK-1 as shown in FIG. 5B. […]
(Immunoblotting shows a protein as a band on a membrane.)

Test [2] concerns Nuclear Factor-kB (NF-kB). Nature of the test: NF-kB activated by LPS in RAW 264.7 cells (degradation of IKBα). The class given is cell-based, murine. The text has this: Parthenolide inhibits Nuclear Factor--kB (NF-kB) transcription factor that has been activated by LPS in the murine macrophage cell line (RAW 264.7) as assessed by the degradation of the protein, IKBα. Activated NF-kB is known to induce the expression of many early response genes including inducible nitric oxide synthetase, cyclooxygenase, and chemokines that are implicated in acute inflammatory responses.

Test [3] relates to MAPKs. Nature of the test: Tyrosine phosphorylation / activation of MAPKs in RAW 264.7 cells. Type of test: cell-based, murine. To be noted: 3h pretreatment (herbimycin A 0.5 μg/ml), LPS 1 μg/ml 30 min. The method, then:
as §1, §2
Parthenolide suppressed LPS-stimulated tyrosine phosphorylation of various proteins in RAW 264.7 cells as assessed by antiphosphotyrosine immunoblot, depicted in FIG. 5A. This inhibition was correlated with the suppressed expression of COX-2 and IL-1α. RAW 264.7 cells were pretreated with parthenolide in various concentrations or with herbimycin A (0.5 μg/ml) for 3h, and then stimulated with LPS (1 μg/ml) in the presence of the inhibitors for 30 min. […] Therefore, the extent of tyrosine phosphorylation of JNK-1 was assessed by the electrophoretic mobility shift of phosphorylated JNK-1 as shown in FIG. 5B. Parthenolide inhibited tyrosine phosphorylation of JNK-1. Another protein tyrosine kinase inhibitor, herbimycin A ([…]), inhibited tyrosine phosphorylation of the MAPK subfamily.
The mechanism by which parthenolide inhibits protein tyrosine phosphorylation is not currently known. It has been speculated that the tyrosine kinase inhibitor herbimycin A inactivates p60^v-src kinase by irreversibly binding to the sulphydryl (SH) groups of p60^v-src kinase. Y. Uehara et al., Biochem. Biophys. Res. Commun., vol. 163, pp. 803-809 (1989). The inactivation by herbimycin may occur through conjugation between highly polarized double bonds in the benzoquinone moiety of herbimycin A and the SH group of sulphydryl compounds. Without wishing to be bound by this theory, the α-methylenebutyrolactone in parthenolide may interact with biological nucleophiles such as sulphydryl groups. Indeed, pretreating cells with sulphydryl compounds abrogated the inhibitory effect of parthenolide on LPS-induced activation of MAPKs as shown in FIG. 6A. In FIG. 6, RAW 264.7 cells were pretreated with parthenolide (1 μg/ml) in the presence of DTT (dithiothreitol, 100 μM), 2-ME (2-mercaptoethanol, 50 μM), or Cys (L-cysteine, 150 μM), and were then stimulated with LPS (1 μg/ml). Cells were incubated for 30 min for antiphosphotyrosine immunoblot analysis (FIG. 6A) and 8h for COX-2 and IL-1α Western blot analyses (FIG. 6B). […] Whether parthenolide inhibits protein tyrosine phosphorylation by directly inhibiting PTKs or by inhibiting other target protein(s) that affect the activity of PTKs is not currently known.

In test [4] the test system is COX-2. Nature of the test: COX activity of de novo synthesized COX-2 (PGE2) in LPS-stimulated, aspirin-pretreated alveolar macrophages. The class given is cell-based, Rat (Sprague-Dawley). To be noted: LPS 10 μg/ml, 16h; PGE2 from exogenous arachidonic acid; FIG. 2; read-out: IC50, inhibition of the expression of COX activity. The method, then:
as §1
(§4) Recovered COX activity in cells pretreated with aspirin reflected de novo synthesized COX-2. Alveolar macrophages pretreated with aspirin were incubated with LPS (10 μg/ml) and various concentrations of parthenolide for 16h. The activity of de novo synthesized COX-2 was determined by measuring the levels of PGE2 produced from exogenous arachidonic acid. Activity of TNFα was determined by bioassay using L929 cells as described by Aggarwal et al., J. Biol. Chem., vol. 260, pp. 2345-2354 (1985). […] Values in FIG. 2 are the means of triplicate samples for TNFα and duplicate samples for PGE2.

Test [5] concerns ERK-1. Nature of the test: Kinase activity of ERK-1 in RAW 264.7 cells (in-gel kinase assay, MBP substrate). Type of test: cell-based, murine. To be noted: 3h pretreatment, LPS 1 μg/ml 30 min; FIG. 5. The method, then:
as §1
This assay was performed according to the method described by Kameshita et al., Anal. Biochem., vol. 183, pp. 139-143 (1989) using myelin basic protein (MBP) as a substrate.
as §3

Test [6] deals with COX-2. Kind of test: Inhibition of the expression of COX-2 in LPS-stimulated macrophages (Table 1). The class given is cell-based. The method, then: Rat (Sprague-Dawley) alveolar macrophages were collected by broncho-alveolar lavage as described by Lee et al., J. Biol. Chem., vol.
Alveolar macrophages pretreated with aspirin were incubated with LPS (10 μg/ml) and various concentrations of parthenolide for 16h. The activity of de novo synthesized COX-2 was determined by measuring the levels of PGE2 produced from exogenous arachidonic acid. Activity of TNFα was determined by bioassay using L929 cells as described by Aggarwal et al., J. Biol. Chem., vol. […] Values in FIG. 2 are the means of triplicate samples for TNFα and duplicate samples for PGE2.

For test [7], the system named is TNFα. Kind of test: LPS-induced TNFα production in alveolar macrophages (bioassay using L929 cells). The class given is cell-based, Rat (Sprague-Dawley). To be noted: LPS 10 μg/ml, 16h, FIG. 2. The method, then: as §1, §4
For test [8], the system named is tyrosine phosphorylation of various proteins. Kind of test: LPS-stimulated tyrosine phosphorylation of various proteins in RAW 264.7 cells (antiphosphotyrosine immunoblot). Type of test: cell-based, murine. The settings on record: 3h pretreatment, LPS 1 μg/ml 30 min; FIG. 5A. The method, then:
as §1, §2, §3

Regarding `C=C1C(=O)O[C@H]2[C@H]1CC/C(C)=C/CC[C@@]1(C)O[C@@H]21` [Compound 1, Parthenolide], the “tyrosine phosphorylation of ERK-2” value in test [1] was “inhibited by parthenolide in a dose-dependent manner”. Moreover, in test [2], the “inhibition of NF-kB transcription factor activated by LPS” value is listed as “inhibits”. Further, in test [3], the “tyrosine phosphorylation of the MAPK subfamily” value was “most dramatic inhibition”. Also, the IC50 in test [4] is approximately 800 nM. The “kinase activity of ERK-1” value in test [5] is on record as “dose-dependent inhibition”. In test [6] (IC50 determined at multiple dose levels), the IC50, inhibiting the expression of COX-2 was found to be 0.2 µg/mL. In test [6] (comparison among tested compounds), the “inhibitory activity (COX-2 expression), in words” value was “highest inhibitory activity”. In test [7], the “IC50, suppression of LPS-induced TNFα production” value amounted to 0.1 µg/mL. Also, the “LPS-stimulated tyrosine phosphorylation of various proteins” value in test [8] was “suppressed”.

(Values after US5905089A, “Use of sesquiterpene lactones for treatment of severe inflammatory disorders” (Board of Supervisors of Louisiana State University and …, priority 1998, dated 1999).)
